Laboratory results published in patent US20090239926A1, “METHODS FOR THE TREATMENT OF PSORIASIS OR PSORIATIC ARTHRITIS USING CYCLOPROPYL-N-CARBOXAMIDE” (priority 2008, published 2009).

Experiments:
[1] = tested on: LPS-stimulated monocyte TNF-α production; test: LPS-induced TNF-α production in monocytes; type: cell-based; settings: Homo sapiens, LPS 10 ng/ml, 24 hours
Description: LPS-induced TNF-α production in Monocytes: Monocytes separated from human peripheral blood mononuclear cells (PBMCs) were plated into a 96-well flat bottom plate at 1×10^5/well in RPMI (5% heat inactivated fetal calf serum (FCS) and then treated with increasing concentrations of Compound A and control (in triplicate). Following a 30 minute pre-incubation period, the monocytes were stimulated with LPS (10 ng/ml) and cultured for 24 hours at 37° C. in 5% CO2. The supernatants are then harvested and analyzed by ELISA.

[2] = tested on: mAB/LPS-induced experimental arthritis in male BALB/c mice; test: mAb/LPS-induced mice arthritis model; type: in vivo
Description: Treatment Regimen: Compound A was administered by oral gavage (PO), using a suitable stainless steel feeding needle. Enbrel (Reference Item) was administrated by intraperitoneal (IP) injections. Compound A was first administered on study Day 3 (one hour prior to the single LPS injection) and thereafter on Days 4, 5, 6, 7, 8, 9, 10, 11, 12 and 13 (total of 11 successive treatment days) at 1, 5 and 25 mg/kg once daily. Compound A treated groups comprised n=8 BALB/c male mice per dosing group. In addition, two equally sized groups were treated with either Enbrel (5 mg/kg/day, Reference Item), or a solution of 0.5% Na CMC/0.25% Tween 80 (PO, 5 ml/kg, Vehicle Control).
Arthritis Reactions: Both hind paws (left and right) of each animal were examined for signs of arthritogenic responses prior to arthritis induction (Day 0) and thereafter on study days 4, 5, 6, 7, 9, 11 & 14 as selected by the Sponsor. Arthritis reactions were scored and recorded according to a 0-4 scale in ascending order of severity (based on Morwell MD Biosciences Inc. brochure) as shown in Table 1.
Measurements of Experimental Arthritis: Hind paw thickness was determined on eight days using a Mitutoyo Electronic Digital Caliper (on Days 0, 4, 5, 6, 7, 9, 11 and 14) and presented as mean group values of the average for both left and right hind paws.

[3] = target: T1, PDE5 from human platelets (Homo sapiens, UniProt O76074); test: Specificity: PDE5; type: biochemical
T1 construct: PDE3 and PDE5 from human platelets; from tissue; host or cells: human platelets
Description: (§1) The specificity of Compound A for PDE4 was assessed by testing at a single concentration (10 μM) against bovine PDE1, human PDE2, PDE3 and PDE5 from human platelets, and PDE6 from bovine retinal rod outer segments.

human PDE2 = human PDE2 (Homo sapiens, UniProt O00408); test: Specificity: PDE2; type: biochemical
Chain of human PDE2 (O00408 whole entry): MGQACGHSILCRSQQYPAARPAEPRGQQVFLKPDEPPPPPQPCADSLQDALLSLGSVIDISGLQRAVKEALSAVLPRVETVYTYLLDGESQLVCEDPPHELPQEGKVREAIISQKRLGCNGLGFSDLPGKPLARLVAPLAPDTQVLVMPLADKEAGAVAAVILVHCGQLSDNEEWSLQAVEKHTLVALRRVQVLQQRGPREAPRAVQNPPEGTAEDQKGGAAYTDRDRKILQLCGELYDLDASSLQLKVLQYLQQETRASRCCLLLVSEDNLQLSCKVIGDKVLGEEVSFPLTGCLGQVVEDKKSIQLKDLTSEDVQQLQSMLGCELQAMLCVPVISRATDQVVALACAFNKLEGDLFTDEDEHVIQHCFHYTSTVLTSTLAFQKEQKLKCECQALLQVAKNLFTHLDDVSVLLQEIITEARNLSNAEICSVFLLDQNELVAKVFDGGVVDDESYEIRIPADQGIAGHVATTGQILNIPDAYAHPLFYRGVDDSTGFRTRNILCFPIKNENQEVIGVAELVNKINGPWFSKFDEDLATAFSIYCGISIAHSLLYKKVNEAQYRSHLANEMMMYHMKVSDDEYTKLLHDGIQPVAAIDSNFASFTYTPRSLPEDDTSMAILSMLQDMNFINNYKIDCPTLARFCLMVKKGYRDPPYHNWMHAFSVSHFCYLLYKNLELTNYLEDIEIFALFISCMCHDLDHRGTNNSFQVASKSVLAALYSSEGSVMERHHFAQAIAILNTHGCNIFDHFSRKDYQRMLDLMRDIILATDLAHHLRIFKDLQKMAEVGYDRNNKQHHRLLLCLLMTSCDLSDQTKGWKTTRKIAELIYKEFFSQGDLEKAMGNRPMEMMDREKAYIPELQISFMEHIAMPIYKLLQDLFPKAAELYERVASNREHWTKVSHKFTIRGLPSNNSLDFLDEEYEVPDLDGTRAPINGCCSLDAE
Description: as §1

[4] = tested on: LPS-induced serum TNF-α in female BALB/c mice; test: Mouse LPS-induced serum TNF-α production; type: in vivo; settings: po
Description: Mouse LPS-induced serum TNF-α production: Compound A was administered to female BALB/c mice orally by gavage two hours prior to LPS challenge. Blood was drawn 1.5 hours after LPS challenge, and serum TNF-α was measured as described above.

[5] = tested on: TNF-α production by synoviocytes from rheumatoid arthritis patients; test: TNF-α production by human rheumatoid synovial membrane cells; type: cell-based; settings: 48 hours culture, ELISA
Description: Human Rheumatoid Synovial Membrane Cell: Rheumatoid synovial membrane tissue samples were processed to dissociate the cells from the matrix by digesting the tissue with Collagenase A and DNAse. The cells were then plated into a 96-well flat-bottom plate at 1×10^6/well in RPMI (10% FCS) and treated with Compound A and controls (in triplicate). The cells were cultured for 48 hours at 37° C. in 5% CO2 before supernatants were harvested and analyzed by ELISA.
Compound A was solubilized under sterile conditions in filter-sterilized dimethyl sulphoxide (DMSO). The vehicle control contained the same concentration of DMSO used as the diluent in the highest concentration of drug used. A combined treatment of anti-TNF-α and IL-1RA, both at 10 μg/ml, was used as a positive control.

[6] = Compound A 1 mg/kg/day PO, Day 0 (prior to arthritis induction)
[7] = Compound A 1 mg/kg/day PO, Day 4
[8] = Compound A 1 mg/kg/day PO, Day 5
[9] = Compound A 1 mg/kg/day PO, Day 6
[10] = Compound A 1 mg/kg/day PO, Day 7
[11] = Compound A 1 mg/kg/day PO, Day 9
[12] = Compound A 1 mg/kg/day PO, Day 11
[13] = Compound A 1 mg/kg/day PO, Day 14
[14] = Compound A 5 mg/kg/day PO, Day 0 (prior to arthritis induction)
[15] = Compound A 5 mg/kg/day PO, Day 4
[16] = Compound A 5 mg/kg/day PO, Day 5
[17] = Compound A 5 mg/kg/day PO, Day 6
[18] = Compound A 5 mg/kg/day PO, Day 7
[19] = Compound A 5 mg/kg/day PO, Day 9
[20] = Compound A 5 mg/kg/day PO, Day 11
[21] = Compound A 5 mg/kg/day PO, Day 14
[22] = Compound A 25 mg/kg/day PO, Day 0 (prior to arthritis induction)
[23] = Compound A 25 mg/kg/day PO, Day 4
[24] = Compound A 25 mg/kg/day PO, Day 5
[25] = Compound A 25 mg/kg/day PO, Day 6
[26] = Compound A 25 mg/kg/day PO, Day 7

## CCOc1cc([C@@H](CS(C)(=O)=O)N2Cc3cccc(NC(=O)C4CC4)c3C2=O)ccc1OC [Compound A, cyclopropyl-N-{2-[(1S)-1-(3-ethoxy-4-methoxyphenyl)-2-(methylsulfonyl)ethyl]-3-oxoisoindoline-4-yl}carboxamide]
[1]
  IC50: 40 nM
[2]; [6]
  Arthritis Scoring, mean of both hind paws (0-4 scale): 0
  Hind Paws Thickness, group mean: 2.2 mm
[2]; [7]
  Arthritis Scoring, mean of both hind paws (0-4 scale): 0
  Hind Paws Thickness, group mean: 2.2 mm
  Percentage Change in Hind Paw Thickness vs. Study Commencement (Day 0), group mean: 1%
[2]; [8]
  Arthritis Scoring, mean of both hind paws (0-4 scale): 1
  Hind Paws Thickness, group mean: 2.4 mm
  Percentage Change in Hind Paw Thickness vs. Study Commencement (Day 0), group mean: 8%
[2]; [9]
  Arthritis Scoring, mean of both hind paws (0-4 scale): 2
  Hind Paws Thickness, group mean: 2.7 mm
  Percentage Change in Hind Paw Thickness vs. Study Commencement (Day 0), group mean: 24%
[2]; [10]
  Arthritis Scoring, mean of both hind paws (0-4 scale): 2
  Hind Paws Thickness, group mean: 2.8 mm
  Percentage Change in Hind Paw Thickness vs. Study Commencement (Day 0), group mean: 27%
[2]; [11]
  Arthritis Scoring, mean of both hind paws (0-4 scale): 2
  Hind Paws Thickness, group mean: 2.7 mm
  Percentage Change in Hind Paw Thickness vs. Study Commencement (Day 0), group mean: 23%
[2]; [12]
  Arthritis Scoring, mean of both hind paws (0-4 scale): 1
  Percentage Change in Hind Paw Thickness vs. Study Commencement (Day 0), group mean: 13%
[2]; [13]
  Arthritis Scoring, mean of both hind paws (0-4 scale): 1
  Hind Paws Thickness, group mean: 2.4 mm
  Percentage Change in Hind Paw Thickness vs. Study Commencement (Day 0), group mean: 7%
[2]; [14]
  Arthritis Scoring, mean of both hind paws (0-4 scale): 0
  Hind Paws Thickness, group mean: 2.2 mm
[2]; [15]
  Arthritis Scoring, mean of both hind paws (0-4 scale): 0
  Hind Paws Thickness, group mean: 2.2 mm
  Percentage Change in Hind Paw Thickness vs. Study Commencement (Day 0), group mean: 1%
[2]; [16]
  Arthritis Scoring, mean of both hind paws (0-4 scale): 1
  Hind Paws Thickness, group mean: 2.5 mm
  Percentage Change in Hind Paw Thickness vs. Study Commencement (Day 0), group mean: 12%
[2]; [17]
  Arthritis Scoring, mean of both hind paws (0-4 scale): 2
  Hind Paws Thickness, group mean: 2.8 mm
  Percentage Change in Hind Paw Thickness vs. Study Commencement (Day 0), group mean: 30%
[2]; [18]
  Arthritis Scoring, mean of both hind paws (0-4 scale): 2
  Hind Paws Thickness, group mean: 2.8 mm
  Percentage Change in Hind Paw Thickness vs. Study Commencement (Day 0), group mean: 30%
[2]; [19]
  Arthritis Scoring, mean of both hind paws (0-4 scale): 2
  Hind Paws Thickness, group mean: 2.7 mm
  Percentage Change in Hind Paw Thickness vs. Study Commencement (Day 0), group mean: 21%
[2]; [20]
  Arthritis Scoring, mean of both hind paws (0-4 scale): 1
  Percentage Change in Hind Paw Thickness vs. Study Commencement (Day 0), group mean: 15%
[2]; [21]
  Arthritis Scoring, mean of both hind paws (0-4 scale): 1
  Hind Paws Thickness, group mean: 2.5 mm
  Percentage Change in Hind Paw Thickness vs. Study Commencement (Day 0), group mean: 13%
[2]; [22]
  Arthritis Scoring, mean of both hind paws (0-4 scale): 0
  Hind Paws Thickness, group mean: 2.2 mm
[2]; [23]
  Arthritis Scoring, mean of both hind paws (0-4 scale): 0
  Hind Paws Thickness, group mean: 2.2 mm
  Percentage Change in Hind Paw Thickness vs. Study Commencement (Day 0), group mean: 0%
[2]; [24]
  Arthritis Scoring, mean of both hind paws (0-4 scale): 1
  Hind Paws Thickness, group mean: 2.4 mm
  Percentage Change in Hind Paw Thickness vs. Study Commencement (Day 0), group mean: 8%
[2]; [25]
  Arthritis Scoring, mean of both hind paws (0-4 scale): 2
  Hind Paws Thickness, group mean: 2.7 mm
  Percentage Change in Hind Paw Thickness vs. Study Commencement (Day 0), group mean: 21%
[2]; [26]
  Arthritis Scoring, mean of both hind paws (0-4 scale): 2
  Hind Paws Thickness, group mean: 2.7 mm
  Percentage Change in Hind Paw Thickness vs. Study Commencement (Day 0), group mean: 21%
[2]; Compound A 25 mg/kg/day PO, Day 11
  Arthritis Scoring, mean of both hind paws (0-4 scale): 1
[3]
  inhibition at 10 µM: -7%
Human PDE2
  inhibition at 10 µM: -14%
[4]; 2 h, 0.1 mg/kg p.o., two hours prior to LPS, n=2, read-out: inhibition of mouse LPS-induced serum TNF-α levels
  inhibition at 0.1 mg/kg: 3%
[4]; 2 h, 1 mg/kg p.o., two hours prior to LPS, n=2, read-out: inhibition of mouse LPS-induced serum TNF-α levels
  inhibition at 1 mg/kg: 83%
[4]; read-out: Mouse LPS-induced serum TNF-α inhibition ED50
  ED50: 0.1 to 1 mg/kg
[5]
  IC50: 100 nM
